Reference: patent US4631289A, “Useful in radiotherapy of chemotherapy 4-aziridino-1-nitroimidazol-1-yl-2,3-butanediols” (National Research Development Corporation, priority 1982, dated 1986)
Like-named read-outs stand apart in the source and are kept apart here.

Experiments:
MT tumour [1] = test: Radiosensitization: enhancement of radiation treatment in WHT mice bearing MT tumour (Example 2); type: in vivo; settings: administered dose 3.8 mmoles/kg, intraperitoneal, before radiation; tumour implanted subcutaneously
Experimental: (§1) In the following Examples, WHT mice in which the MT tumour has been implanted subcutaneously are administered the compound of Example 1 intraperitoneally before treatment with radiation or with the chemotherapeutic agent melphalan. The time before such treatment at which the drug is administered is such that maximum enhancement is effected. The results of treatment with radiation and the chemotherapeutic drug are set out respectively in Tables I and II together with comparison results using misonidazole (MISO) and the compound Ro-03-8799. The asterisks against the results from treatment with the latter compounds indicate that the tumours treated in these cases are intramuscular.

MT tumour [2] = test: Chemosensitization (melphalan): enhancement of melphalan treatment in WHT mice bearing MT tumour (Example 3); type: in vivo; settings: i.p. before melphalan
Experimental: as §1

[3] = test system: irradiated hypoxic V79 mammalian cells; test: Sensitisation: concentration for enhancement ratio of 1.6 in irradiated hypoxic V79 cells; type: cell-based; settings: Cricetulus griseus, read-out: C1.6 (concentration required to achieve an enhancement ratio of 1.6)
Description: ^a Concentration required to achieve an enhancement ratio of 1.6 in
irradiated hypoxic V79 mammalian cells.

[4] = Toxicity, LD50, i.p. in male CRCD1 mice; settings: mouse, in vivo, ip, male CRCD1 mice (footnote c)
Description: (§2) ^b Drugs administered i.p. to .female. WHT mice.
^c For Compound of Example 1 in .male. CRCD1 mice

[5] = Toxicity, LD50, i.p. in female WHT mice; settings: mouse, in vivo, ip
Description: as §2

[6] = administered dose 0.72 mmoles/kg, * tumours intramuscular

Compound	EC (enhancement ratio 1.6) ([3]; V79, light or radiation study)	LD50 [5]	other results
COCC(O)Cn1ccnc1[N+](=O)[O-] (stereo not shown) [MISO, misonidazole]	–	–	Enhancement ratio (Radiosensitization) (MT tumour [1]): 1.3; Enhancement ratio (Chemosensitization, melphalan) (MT tumour [2]; [6]): 1.7
O=[N+]([O-])c1nccn1CC(O)CN1CC1 (stereo not shown) [Example 1, 1-(2-Nitro-1-imidazolyl)-3-(1-aziridino)-2-propanol]	–	–	Enhancement ratio (Radiosensitization) (MT tumour [1]): 1.7; Enhancement ratio (Chemosensitization, melphalan) (MT tumour [2]; administered dose 0.08 mmoles/kg, tumour implanted subcutaneously): 3.0; EC (enhancement ratio 1.6) ([3]; light or radiation study, irradiated hypoxic V79 mammalian cells): 100 µM; LD50 [4]: 610 µmol/kg
C[C@@H]1[C@H](C)N1CC(O)Cn1ccnc1[N+](=O)[O-] (relative stereo) [Example 13, 1-(2-Nitro-1-imidazolyl)-3-(2,3-dimethyl-1-aziridino)-2-propanol]	80 µM	≤ 1250 µmol/kg	–
O=[N+]([O-])c1nccn1CC(O)CN1CC1c1ccccc1 (stereo not shown) [Example 8, 1-(2-Nitro-1-imidazolyl)-3-(2-phenyl-1-aziridino)-2-propanol]	300 µM	–	–
C[C@@H]1[C@@H](C)N1CC(O)Cn1ccnc1[N+](=O)[O-] (relative stereo) [Example 14, 1-(2-Nitro-1-imidazolyl)-3-(2,3-dimethyl-1-aziridino)-2-propanol]	80 µM	–	–
CC(C)C1CN1CC(O)Cn1ccnc1[N+](=O)[O-] (stereo not shown) [Example 9, 1-(2-Nitro-1-imidazolyl)-3-(2-isopropyl-1-aziridino)-2-propanol]	130 µM	≤ 1180 µmol/kg	–
Cc1ncc([N+](=O)[O-])n1CC(O)CN1CC1 (stereo not shown) [Example 11, 1-(2-methyl-5-nitro-1-imidazolyl)-3-(1-aziridino or substitutedaziridino)-2-propanol]	300 µM	800 µmol/kg	–
O=[N+]([O-])c1nccn1CC(O)C(O)CN1CC1 (stereo not shown) [Example 10, 1-(2-Nitro-1-imidazolyl)-4-(1-aziridino) or substituted aziridino)-2,3-butane-diol]	130 µM	410 µmol/kg	–
CCC1CN1CC(O)Cn1ccnc1[N+](=O)[O-] (stereo not shown) [Example 5, 1-(2-Nitro-1-imidazolyl)-3-(2-ethyl-1-aziridino)-2-propanol]	130 µM	580 µmol/kg	–
O=[N+]([O-])c1nccn1CC(O)CN1CCCCC1 (stereo not shown) [Example 8799]	–	–	Enhancement ratio (Radiosensitization) (MT tumour [1]): 1.3; Enhancement ratio (Chemosensitization, melphalan) (MT tumour [2]; [6]): 2.2; Enhancement ratio (Chemosensitization, melphalan) (MT tumour [2]; administered dose 0.72 mmoles/kg, tumour implanted subcutaneously): 1.9
CC1(C)CN1CC(O)Cn1ccnc1[N+](=O)[O-] (stereo not shown) [Example 7, 1-(2-Nitro-1-imidazolyl)-3-(2,2-dimethyl-1-aziridino)-2-propanol]	80 µM	1250 µmol/kg	–
CC1CN1CC(O)Cn1ccnc1[N+](=O)[O-] (stereo not shown) [Example 4, 1-(2-Nitro-1-imidazolyl)-3-(2-methyl-1-aziridino)-2-propanol]	80 µM	< 580 µmol/kg	–
